What was measured:
SEM cells [1] = experiment: cell viability relative to DMSO control; higher = less cytotoxic; conditions: 48 h
How it was run: (§1)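 NOMO1, SEM and P12-Ichikawa leukemia cells spent at least four passages adapting to each medium before use. They were seeded at 500 cells/well (NOMO1, SEM) or 1000 cells/well (P12-Ichikawa) in 5 μl in 1536-well plates and pin-dosed with library compounds in DMSO at 11 threefold steps from 47 μM down to 0.79 nM. After 48 h at 37°C, CellTiter-Glo One luminescence was read. Viability is reported as a percentage of the DMSO wells on each plate, with cell-free wells as background.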

NOMO1 [2] = experiment: AUC of viability dose-response curve (% viability x log10 dose units); higher = less sensitive; conditions: 48 h
How it was run: (§2)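 Library compounds in DMSO were applied for 48 h at 37°C at 11 threefold doses (47 μM to 0.79 nM) to medium-adapted leukemia cells in 1536-well plates holding 500 or 1000 cells/well. Luminescence from CellTiter-Glo One was normalised plate by plate against DMSO and cell-free wells. Area under the curve came from trapezoidal integration of a log-logistic fit, after scaling curves that rose above full viability and discarding those that failed quality control. The fit had four parameters and used log10 doses.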

P12-Ichikawa [3] = experiment: as above; conditions: 48 h
How it was run: as §2

SEM cells [4] = experiment: as above; conditions: 48 h
How it was run: as §2

NOMO1 [5] = experiment: cell viability relative to DMSO control; higher = less cytotoxic; conditions: HPLM + 10% dialyzed FBS, 48 h
How it was run: as §1

P12-Ichikawa [6] = experiment: as above; conditions: HPLM + 10% dialyzed FBS, 48 h
How it was run: as §1

CCC[C@H](NC(=O)[C@@H]1[C@H]2CCC[C@H]2CN1C(=O)[C@@H](NC(=O)[C@@H](NC(=O)c1cnccn1)C1CCCCC1)C(C)(C)C)C(=O)C(=O)NC1CC1
SEM cells [1], HPLM + 10% dialyzed FBS
Conditions | cell viability [%]
0.000781 µM | 106
0.00234 µM | 99.8
0.00702 µM | 106
0.0211 µM | 106
0.0632 µM | 111
0.19 µM | 118
0.569 µM | 118
1.71 µM | 119
5.12 µM | 127
15.4 µM | 111
46.1 µM | 116

AUC of viability dose-response curve
Conditions | NOMO1 [2] | P12-Ichikawa [3] | SEM cells [4]
HPLM + 10% dialyzed FBS | 461 | 474 | 454
RPMI 5 mM glucose + 10% FBS | 474 | 473 | 469
RPMI 5 mM glucose + 10% dialyzed FBS | 472 | 476 | 470

CCN(CC)CCOc1ccc(/C(=C(\Cl)c2ccccc2)c2ccccc2)cc1
Conditions | AUC of viability dose-response curve | cell viability [%]
NOMO1 [2], HPLM + 10% dialyzed FBS | 458 | –
NOMO1 [2], RPMI 5 mM glucose + 10% FBS | 471 | –
NOMO1 [2], RPMI 5 mM glucose + 10% dialyzed FBS | 473 | –
NOMO1 [5], 0.000781 µM | – | 124
NOMO1 [5], 0.00234 µM | – | 123
NOMO1 [5], 0.00702 µM | – | 130
NOMO1 [5], 0.0211 µM | – | 136
NOMO1 [5], 0.0632 µM | – | 150
NOMO1 [5], 0.19 µM | – | 134
NOMO1 [5], 0.569 µM | – | 130
NOMO1 [5], 1.71 µM | – | 134
NOMO1 [5], 5.12 µM | – | 109
NOMO1 [5], 15.4 µM | – | 122
NOMO1 [5], 46.1 µM | – | 102
P12-Ichikawa [3], HPLM + 10% dialyzed FBS | 466 | –
P12-Ichikawa [3], RPMI 5 mM glucose + 10% FBS | 469 | –
P12-Ichikawa [3], RPMI 5 mM glucose + 10% dialyzed FBS | 456 | –
SEM cells [4], HPLM + 10% dialyzed FBS | 470 | –
SEM cells [4], RPMI 5 mM glucose + 10% FBS | 462 | –
SEM cells [4], RPMI 5 mM glucose + 10% dialyzed FBS | 470 | –

cell viability [%], SEM cells [1]
Conditions | HPLM + 10% dialyzed FBS | RPMI 5 mM glucose + 10% FBS | RPMI 5 mM glucose + 10% dialyzed FBS
0.000781 µM | 111 | 90 | 104
0.00234 µM | 118 | 94.7 | 124
0.00702 µM | 128 | 115 | 125
0.0211 µM | 114 | 116 | 127
0.0632 µM | 118 | 118 | 142
0.19 µM | 116 | 128 | 144
0.569 µM | 134 | 124 | 127
1.71 µM | 125 | 116 | 126
5.12 µM | 129 | 108 | 123
15.4 µM | 112 | 116 | 126
46.1 µM | 101 | 91.6 | 118

CCNC(=O)C[C@H]1/N=C(/C2=CC=C(Cl)C=C2)C3=CC(=CC=C3[N]4C(=NN=C14)C)OC
SEM cells [1], RPMI 5 mM glucose + 10% dialyzed FBS
Conditions | cell viability [%]
0.000781 µM | 122
0.00234 µM | 124
0.00702 µM | 138
0.0211 µM | 119
0.0632 µM | 141
0.19 µM | 117
0.569 µM | 155
1.71 µM | 122
5.12 µM | 108
15.4 µM | 99.4
46.1 µM | 22.2

AUC of viability dose-response curve
Conditions | NOMO1 [2] | P12-Ichikawa [3] | SEM cells [4]
HPLM + 10% dialyzed FBS | 465 | 464 | 442
RPMI 5 mM glucose + 10% FBS | 461 | 460 | 450
RPMI 5 mM glucose + 10% dialyzed FBS | 445 | 462 | 440

CC(C)CNc1ccnc(NCc2csc(-c3ccccc3)n2)n1
Conditions | AUC of viability dose-response curve | cell viability [%]
NOMO1 [2], HPLM + 10% dialyzed FBS | 414 | –
NOMO1 [2], RPMI 5 mM glucose + 10% FBS | 456 | –
NOMO1 [2], RPMI 5 mM glucose + 10% dialyzed FBS | 446 | –
P12-Ichikawa [3], HPLM + 10% dialyzed FBS | 440 | –
P12-Ichikawa [3], RPMI 5 mM glucose + 10% FBS | 436 | –
P12-Ichikawa [3], RPMI 5 mM glucose + 10% dialyzed FBS | 442 | –
P12-Ichikawa [6], 0.000781 µM | – | 110
P12-Ichikawa [6], 0.00234 µM | – | 123
P12-Ichikawa [6], 0.00702 µM | – | 128
P12-Ichikawa [6], 0.0211 µM | – | 132
P12-Ichikawa [6], 0.0632 µM | – | 130
P12-Ichikawa [6], 0.19 µM | – | 132
P12-Ichikawa [6], 0.569 µM | – | 127
P12-Ichikawa [6], 1.71 µM | – | 115
P12-Ichikawa [6], 5.12 µM | – | 101
P12-Ichikawa [6], 15.4 µM | – | 96.3
P12-Ichikawa [6], 46.1 µM | – | 63.6
SEM cells [4], HPLM + 10% dialyzed FBS | 447 | –
SEM cells [4], RPMI 5 mM glucose + 10% FBS | 447 | –
SEM cells [4], RPMI 5 mM glucose + 10% dialyzed FBS | 458 | –

cell viability [%], SEM cells [1]
Conditions | HPLM + 10% dialyzed FBS | RPMI 5 mM glucose + 10% FBS
0.000781 µM | 88.4 | 110
0.00234 µM | 107 | 110
0.00702 µM | 104 | 127
0.0211 µM | 100 | 113
0.0632 µM | 121 | 138
0.19 µM | 113 | 145
0.569 µM | 107 | 142
1.71 µM | 120 | 138
5.12 µM | 108 | 113
15.4 µM | 64.2 | 88.9
46.1 µM | 61.1 | 68.2

O=C(c1ccc(OCCN2CCCCC2)cc1)c1c(-c2ccc(O)cc2)sc2cc(O)ccc12
Conditions | AUC of viability dose-response curve | cell viability [%]
NOMO1 [2], HPLM + 10% dialyzed FBS | 466 | –
NOMO1 [2], RPMI 5 mM glucose + 10% FBS | 475 | –
NOMO1 [2], RPMI 5 mM glucose + 10% dialyzed FBS | 462 | –
NOMO1 [5], 0.000781 µM | – | 121
NOMO1 [5], 0.00234 µM | – | 119
NOMO1 [5], 0.00702 µM | – | 134
NOMO1 [5], 0.0211 µM | – | 135
NOMO1 [5], 0.0632 µM | – | 150
NOMO1 [5], 0.19 µM | – | 145
NOMO1 [5], 0.569 µM | – | 143
NOMO1 [5], 1.71 µM | – | 133
NOMO1 [5], 5.12 µM | – | 123
NOMO1 [5], 15.4 µM | – | 126
NOMO1 [5], 46.1 µM | – | 89.9
P12-Ichikawa [3], HPLM + 10% dialyzed FBS | 442 | –
P12-Ichikawa [3], RPMI 5 mM glucose + 10% FBS | 442 | –
P12-Ichikawa [3], RPMI 5 mM glucose + 10% dialyzed FBS | 413 | –
SEM cells [4], HPLM + 10% dialyzed FBS | 413 | –
SEM cells [4], RPMI 5 mM glucose + 10% FBS | 415 | –
SEM cells [4], RPMI 5 mM glucose + 10% dialyzed FBS | 384 | –

SEM cells [1], RPMI 5 mM glucose + 10% FBS
Conditions | cell viability [%]
0.000781 µM | 108
0.00234 µM | 122
0.00702 µM | 122
0.0211 µM | 133
0.0632 µM | 113
0.19 µM | 42
0.569 µM | 133
1.71 µM | 94.1
5.12 µM | 85.3
15.4 µM | 117
46.1 µM | 68.9

CN(C)C(=N)NC(=N)N
SEM cells [1], RPMI 5 mM glucose + 10% FBS
Conditions | cell viability [%]
0.000781 µM | 110
0.00234 µM | 122
0.00702 µM | 116
0.0211 µM | 132
0.0632 µM | 152
0.19 µM | 154
0.569 µM | 156
1.71 µM | 110
5.12 µM | 62.4
15.4 µM | 56.6
46.1 µM | 17.8

AUC of viability dose-response curve
Conditions | NOMO1 [2] | P12-Ichikawa [3] | SEM cells [4]
HPLM + 10% dialyzed FBS | 437 | 442 | 436
RPMI 5 mM glucose + 10% FBS | 446 | 460 | 393
RPMI 5 mM glucose + 10% dialyzed FBS | 451 | 457 | 426
